{"source": "patent US6596766B1", "about": "“Utilization of material containing docosapentaenoic acid” (Suntory Limited, priority 1999, dated 2003)", "test": "Fatty acid composition in the livers of rats fed DHA-containing oil (Example 2)", "assay_type": "in vivo, Wistar rats", "settings": "rat liver, versus control group", "from_the_text": "Four-week-old male Wistar rats were initially raised for one week, and then divided into 2 groups described below.\nperilla oil: safflower oil=7:3\nrapeseed oil: DHA ethyl ester=3:2\nFor 4 weeks, the rats were fed experimental diets prepared by mixing 5% of the indicated oils for each of the groups to the basal feed.\nThe livers were excised from the raised rats of both groups, and lipids were extracted by the Folch method and upon conversion to the methyl ester, the amount of each fatty acid was analyzed by gas chromatography."}
{"smiles": "CCC=CCC=CCC=CCC=CCC=CCC=CCCC(=O)O", "note": "[DHA, 4,7, 10, 13, 16, 19-docosahexaenoic acid]", "values": [{"measurement": "effect on the proportion of ARA in the liver (in words)", "result": "significant decrease in the proportion of ARA"}]}
